Several values for one entry are separate records, joined by “and”; a condition that tells them apart may be missing. Identical values can stand only once. Marks after values point to notes of the source that are not given here.
Assays:
[1] = system: IFNγ-induced NO production in RAW 264.7 cells; test: Nitric oxide suppression assay (IFNγ-induced NO production, Griess nitrite readout); type: cell-based, mouse; details: for IC50: Mus musculus, RAW264.7, RAW 264.7 cells, 2 h pretreatment, 20 ng/mL interferon gamma 24 h, average of trials per footnote, read-out: NO IC50
[2] = system: AREc32 reporter cell line (luciferase reporter under eight copies of the rat GSTA2 ARE sequence); test: AREc32 luciferase reporter activation; type: cell-based, human; details: for EC (2-fold): Homo sapiens, Arec32, concentration that increases the luminescence signal 2-fold above vehicle, 19 h treatment, read-out: AREc32 EC2X (Mean ± SD); for AREc32 Relative to CC in Same Experiment (Mean ± SD): average of ratios from three replicate experiments
[3] = biological target: T1, CYP3A4 (Homo sapiens, UniProt P08684); test: CYP3A4 (midazolam) inhibition in human liver microsomes; type: in vitro ADME; details: probe midazolam; human liver microsomes 0.1 mg/mL, midazolam substrate, 1 μM test compound, 37° C. 10 min
T1 construct: containing 0.1 mg/mL human liver microsomes; from tissue; host or cells: human liver microsomes
Experimental: Methods. Several compounds were evaluated for CYP3A4 (midazolam) inhibition in human liver microsomes at 1 μM. CYP3A4 inhibition was tested using an in vitro assay as generally described in Dierks et al. (Drug Metabolism Deposition, 29:23-29, 2001, which is incorporated by reference herein). Each sample, containing 0.1 mg/mL human liver microsomes, […] as substrate, and 1 μM of test compound, was incubated at 37° C. for 10 min. Following incubation, the metabolite 1-hydroxymidazolam was measured using HPLC-MS/MS. Peak areas corresponding to the metabolite of the substrate were recorded. The percent of control activity was then calculated by comparing the peak area obtained in the presence of the test compound to that obtained in the absence of the test compound. Subsequently, the percent inhibition was calculated by subtracting the percent control activity from 100 for each compound.

T1 sequence (P08684 whole entry): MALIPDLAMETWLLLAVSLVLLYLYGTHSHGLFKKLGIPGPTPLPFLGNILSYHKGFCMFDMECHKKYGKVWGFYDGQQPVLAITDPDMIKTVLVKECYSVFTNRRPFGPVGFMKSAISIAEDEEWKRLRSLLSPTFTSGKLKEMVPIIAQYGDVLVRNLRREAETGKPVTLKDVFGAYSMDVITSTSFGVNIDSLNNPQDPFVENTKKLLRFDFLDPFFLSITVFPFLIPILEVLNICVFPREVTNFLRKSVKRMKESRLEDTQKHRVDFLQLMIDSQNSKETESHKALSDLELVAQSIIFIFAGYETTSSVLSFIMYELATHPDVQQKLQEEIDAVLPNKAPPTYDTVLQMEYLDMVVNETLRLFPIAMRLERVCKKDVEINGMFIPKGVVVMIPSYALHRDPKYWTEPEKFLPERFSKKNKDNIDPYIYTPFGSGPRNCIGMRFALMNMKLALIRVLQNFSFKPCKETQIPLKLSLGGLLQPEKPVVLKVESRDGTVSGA

SMILES | NO IC50 Rel. to RTA 402 [1] | IC50 [1] [nM] | AREc32 EC2X Relative to RTA 402 (Mean ± SD) [2] | EC (2-fold) [2] [µM] | AREc32 Relative to CC in Same Experiment (Mean ± SD) ([2]; comparison compound CC4) | inhibition at 10 min, 1 µM [3] [%] | times more active (NO IC50) than CC4 relative to RTA 402 [1] | times more active (NO IC50) than 63229 relative to RTA 402 [1] | times more active (NO IC50) than CC2 relative to RTA 402 [1] | AREc32 Relative to CC in Same Experiment (Mean ± SD) ([2]; comparison compound CC2)
CC1(C)CC[C@]2(n3cncn3)CC[C@]3(C)[C@H](C(=O)C=C4[C@@]5(C)C=C(C#N)C(=O)C(C)(C)[C@@H]5CC[C@]43C)[C@@H]2C1 [Compound T33] | 1.35 ± 0.26^d fold | 5.62 ± 1.81 | 1.2 ± 0.18^f fold | 0.0136 ± 0.00131 | 0.484 ± 0.060 | 49 | – | – | – | –
CC1(C)CC[C@]2(n3ccnn3)CC[C@]3(C)[C@H](C(=O)C=C4[C@@]5(C)C=C(C#N)C(=O)C(C)(C)[C@@H]5CC[C@]43C)[C@@H]2C1 [Compound T35] | 0.64 fold and 0.64 ± 0.04^e fold | 1.3 | 0.6 ± 0.18^f fold | 0.0071 ± 0.00073 | 0.262 ± 0.020 | 41.7 | ~4 times | – | – | –
CC1(C)CC[C@]2(n3cnnn3)CC[C@]3(C)[C@H](C(=O)C=C4[C@@]5(C)C=C(C#N)C(=O)C(C)(C)[C@@H]5CC[C@]43C)[C@@H]2C1 [Compound T36] | 0.77 fold and 0.77 ± 0.16^e fold | 1.96 | 0.5 ± 0.13^f fold | 0.0056 ± 0.00059 | 0.191 ± 0.009 | 52.8 | roughly 3.1 times | greater than 98.5 times | – | –
CC1(C)CC[C@]2(n3ccnc3)CC[C@]3(C)[C@H](C(=O)C=C4[C@@]5(C)C=C(C#N)C(=O)C(C)(C)[C@@H]5CC[C@]43C)[C@@H]2C1 [Compound T37] | 1.37 ± 0.26^e fold | 3.22 ± 1.52 | 2.1 ± 0.50^f fold | 0.0243 ± 0.0027 | 0.878 ± 0.094 | 86.5 | – | – | – | –
CNC(=O)c1cn([C@]23CCC(C)(C)C[C@H]2[C@H]2C(=O)C=C4[C@@]5(C)C=C(C#N)C(=O)C(C)(C)[C@@H]5CC[C@@]4(C)[C@]2(C)CC3)nn1 [Compound T41] | 1.19 ± 0.22^d fold | 4.96 ± 1.58 | 0.8 ± 0.16^f fold | 0.0094 ± 0.00135 | 0.320 ± 0.037 | 17.1 | – | – | – | –
CC1(C)CC[C@]2(n3cc(CF)nn3)CC[C@]3(C)[C@H](C(=O)C=C4[C@@]5(C)C=C(C#N)C(=O)C(C)(C)[C@@H]5CC[C@]43C)[C@@H]2C1 [Compound T43] | 0.66 fold and 0.66 ± 0.09^d fold | 2.68 | 0.7 ± 0.15^f fold | 0.0085 ± 0.00055 | 0.299 ± 0.015 | 17 | roughly 3.7 times | – | – | –
CC1(C)CC[C@]2(n3cc(C(F)F)nn3)CC[C@]3(C)[C@H](C(=O)C=C4[C@@]5(C)C=C(C#N)C(=O)C(C)(C)[C@@H]5CC[C@]43C)[C@@H]2C1 [Compound T44] | 1.07 ± 0.11^d fold | 4.39 ± 0.73 | 0.9 ± 0.15^f fold | 0.0106 ± 0.00083 | 0.387 ± 0.037 | 29.1 | – | – | – | –
Cc1cn(C[C@]23CCC(C)(C)C[C@H]2[C@H]2C(=O)C=C4[C@@]5(C)C=C(C#N)C(=O)C(C)(C)[C@@H]5CC[C@@]4(C)[C@]2(C)CC3)nn1 [Compound T48] | 1.19 fold and 1.19 ± 0.18^e fold | 2.5 | 1.3 ± 0.21^g fold | 0.0129 ± 0.00143 | – | 29.8 | – | – | roughly 1.3 times | 0.802 ± 0.050
COC(=O)[C@]12CCC(C)(C)C[C@H]1[C@H]1C(=O)C=C3[C@@]4(C)C=C(C#N)C(=O)C(C)(C)[C@@H]4CC[C@@]3(C)[C@]1(C)CC2 [RTA 402, reference compound] | 1.00 ± 0.00 fold | 2.58 ± 1.19 | 1.00 fold | 0.0118 ± 0.0029 | – | – | – | – | – | –
